We go through one substance from US20140127185A1, “METHODS AND COMPOSITIONS USING NEUROPROTECTIVE STEROIDS AND THROMBOLYTIC AGENTS” (priority 2012, published 2014).

The subject of assay [1] is claudin-5. Nature of the assay: Tight junction protein Western blot in vivo (ischemic cortices): claudin-5. The arrangement: species or system rat. The note with it: 24 hours after ischemia, compared to stroke without tPA / with tPA. Here is the method: Peri-infarct cortical tissue is processed for protein analysis. Tissues are homogenized in T-per (Pierce, Rockford, Ill.) containing protease inhibitor cocktail (P8340, Sigma). Homogenates are centrifuged for 15 minutes at 13,000 g. 40 μg of total protein is separated on 8-12% gel and transferred onto polyvinylidene difluoride (Millipore, Mass., USA; PVDF) membranes at 300 mA for 2 hours. To measure the level of immunoglobulin, the membranes were incubated overnight at 4° C. with anti Rat IgG conjugated to biotin. bEND 3 cells are subjected to hypoxia/reperfusion for 9 hours and then lysed on ice in 100 μl of RIPA buffer. Cell lysated are boiled and then electrophoresed in 12% SDS-PAGE acrylamide gels, transferred onto PVDF membranes, and incubated for 1 hour in TBS-T (tris-buffered saline and 0.1% Tween 20) containing 5% bovine serum albumin (BSA). Membranes are then incubated overnight at 4° C. with primary antibodies against occludin (Invitrogen, Calif., USA; 1:1000), claudin-5 (Invitrogen; 1:1000), and ZO-1 (Invitrogen; 1:1000), washed in TBS-T, and incubated for 1 hour at room temperature with corresponding peroxidase-conjugated secondary antibodies (1:5000; KPL, Gaithersburg, Md.). All blots are stripped and re-incubated with β-actin antibodies (1:5000, Sigma) as a loading control. […] Intensity of the bands is measured by an Image Gauge version. […]
For orientation: Immunoblotting shows a protein as a band on a membrane.

The subject of assay [2] is blood-brain barrier (BBB). Nature of the assay: BBB disruption: serum IgG in ischemic cortex by Western blot. The note with it: 24 hours after ischemic injury and tPA treatment. In kind it is in vivo, rat.
For assay [3], the system named is bEND3 cells. Briefly: Transendothelial electrical resistance (TEER) after hypoxia/reperfusion (H/R). In kind it is cell-based, mouse. The note with it: tPA 20 μ/ml; 6 hours hypoxia, 3 hours reoxygenation. Here is the method:
(§1) An immortalized mouse brain endothelial cell line (bEND 3) is purchased from American Type Culture Collection (ATCC, VA, USA) and cultured in Dulbecco's modified Eagle Medium (DMEM, ATCC) supplemented with 10% fetal bovine serum (ATCC). bEND 3 cells are seeded onto the luminal side of a filter (0.4 μm pore size; Corning, Lowell, MCA) coated with fibronectin (5 μg/ml) in 12-well plates for a transendothelial electrical resistance (TEER) test; and in 100-mm dishes for Western blot studies. Cell cultures are incubated at 37° C. in a 5%/95% mixture of CO2 and atmospheric air, and the medium is replaced every 3 days.
The electrical resistance across the membrane are measured using an Millicell ERS Voltohmmeter (Millipore, Billerica, Mass.). The extracellular matrix-treated Transwell inserts are placed in 12-well plates containing culture medium and then used to measure the background resistance. The resistance measurements of these blank filters are then subtracted from those of filters with cells. Values are shown as Q. based on culture inserts.
To mimic ischemia-like conditions in vitro, immortalized mouse brain endothelial (bEND3) cells were exposed to 6 hours of hypoxia and 3 hours of reoxygeneation with or without the administration of tPA at a dose of 20 μ/ml. Reoxygenation was initiated by adding glucose (4.5 g/L)-containing phenol red-free DMEM for 3 hours at 37° C. in 95% air and 5% CO2. The cells were treated with various concentrations progesterone for 24 hours before hypoxia/reperfusion (H/R). BBB integrity was evaluated by transendothelial membrane electrical resistance (TEER) measurement, MMP-9 activity, and the alteration of tight junction proteins following in vitro H/R injury.

Assay [4] deals with claudin-5. Briefly: Claudin-5 in H/R-treated bEND3 cells (Western blot). It is filed as cell-based, mouse. The note with it: tPA with H/R. Here is the method:
as §1
Peri-infarct cortical tissue is processed for protein analysis. Tissues are homogenized in T-per (Pierce, Rockford, Ill.) containing protease inhibitor cocktail (P8340, Sigma). Homogenates are centrifuged for 15 minutes at 13,000 g. […] Intensity of the bands is measured by an Image Gauge version. […]
(§2) To mimic ischemia-like conditions in vitro, immortalized mouse brain endothelial (bEND3) cells were exposed to 6 hours of hypoxia and 3 hours of reoxygeneation with or without the administration of tPA at a dose of 20 μ/ml. […] BBB integrity was evaluated by transendothelial membrane electrical resistance (TEER) measurement, MMP-9 activity, and the alteration of tight junction proteins following in vitro H/R injury.

Assay [5] deals with occludin. Briefly: Occludin in H/R-treated bEND3 cells (Western blot, immunofluorescence). It is filed as cell-based, mouse. Here is the method: as §1
Peri-infarct cortical tissue is processed for protein analysis. Tissues are homogenized in T-per (Pierce, Rockford, Ill.) containing protease inhibitor cocktail (P8340, Sigma). Homogenates are centrifuged for 15 minutes at 13,000 g. 40 μg of total protein is separated on 8-12% gel and transferred onto polyvinylidene difluoride (Millipore, Mass., USA; PVDF) membranes at 300 mA for 2 hours. To measure the level of immunoglobulin, the membranes were incubated overnight at 4° C. with anti Rat IgG conjugated to biotin. bEND 3 cells are subjected to hypoxia/reperfusion for 9 hours and then lysed on ice in 100 μl of RIPA buffer. Cell lysated are boiled and then electrophoresed in 12% SDS-PAGE acrylamide gels, transferred onto PVDF membranes, and incubated for 1 hour in TBS-T (tris-buffered saline and 0.1% Tween 20) containing 5% bovine serum albumin (BSA). Membranes are then incubated overnight at 4° C. with primary antibodies against occludin (Invitrogen, Calif., USA; 1:1000), claudin-5 (Invitrogen; 1:1000), and ZO-1 (Invitrogen; 1:1000), washed in TBS-T, and incubated for 1 hour at room temperature with corresponding peroxidase-conjugated secondary antibodies (1:5000; KPL, Gaithersburg, Md.). All blots are stripped and re-incubated with β-actin antibodies (1:5000, Sigma) as a loading control. The peroxidase reaction is developed with an ECL-plus detection kit (Amersham BioScience, Piscataway, N.J.). Intensity of the bands is measured by an Image Gauge version. 4.0 program (FUJI Photo Film Co., Ltd).
The bEnd 3 cells grown to confluence on coverslips are subjected to the indicated treatments. […]
as §2

For assay [6], the system named is Male Sprague Dawley (SD) rats subjected to focal ischemia. Briefly: Focal ischemia with delayed tPA in rats: cerebral hemorrhage, infarct volume, brain swelling. In kind it is in vivo, rat. To be noted: 24 hours post-stroke; tPA 5 mg/kg via femoral vein at 4.5 hours; progesterone i.p. at 2 hours. Here is the method: 2,3,5-tripheynltetrazolium (TTC)-stained brain sections are used for quantification of intracerebral hemorrhage with a spectrophotometric hemoglobin assay. Samples typically are collected 19.5 hours after injury. The brain tissue is homogenized in 2 ml 0.05 M tris buffered saline and tween (TBS-T) followed by a 30-minute centrifugation (12,000 rpm) and re-centrifugation for 15-minutes at 10,000 rpm. Then, 200 μl reagent (QuantiChrom™ Hemoglobin Assay Kit; BioAssay Systems) is added to a 50 μl supernatant. Optical density is measured at 405 nm with a spectrophotometer.
Brain edema/swelling are estimated by measuring the hemispheric areas of each 2-mm thick brain slices using Image J software (NIH, Bethesda, […]., USA), typically 24 hours after MCAO. Edema formation is calculated as hemispheric enlargement and expressed as a percentage of the normal areas in the contralateral hemisphere.
Male Sprague Dawley (SD) rats were subjected to focal ischemia, reperfused at 4.5 hours and then treated with tPA (5 mg/kg body weight; via femoral vein) at 4.5 hours or by combined progesterone (given by intraperitoneal injection at 2 hours) plus tPA (given at 4.5 hours). Rats were killed at 24 hours after ischemia, brains were perfused with saline, and coronal sections (2 mm thick) were stained with 2,3,5-triphenyltetrazolium chloride to quantify infarct volumes. […]

Consider “tPA: serum protease acting specifically on serum plasminogen; also known as alteplase, available commercially as Activase”, for which the “Lower molecular weight 17-kDa claudin-5 fragments” value in assay [1] is given as “increase”. In addition, in assay [2], the “Increase of IgG levels in ischemic cortex” value is recorded as “up to 2 ×”. Besides, the “TEER under H/R conditions” value in assay [3] is recorded as “significantly decreased”. Further, the “Expression of 23-kDa claudin-5 (Western blot)” value in assay [4] is “markedly decreased”. Moreover, the “Detected levels of occludin (immunofluorescence)” value in assay [5] (bEND3 cells exposed to H/R and tPA for 9 hours, progesterone pretreatment) is “reduced”. Besides, the “Expression of occludin (Western blot)” value in assay [5] (bEND3 cells, tPA with H/R) is reported as “markedly decreased”. The “Hemorrhage volume (hemoglobin in perfused brain)” value in assay [6] is recorded as “induced cerebral hemorrhage”.
